What all share (type): in vivo, human
In experiment [1] the test system is eye of subjects. Kind of experiment: Presbyopia: pupil diameter after self-administered pilocarpine micro-dose. Here is the method:
(§1) A 10 μl micro-dose of a 1% pilocarpine solution was self-administered using an electromagnetic actuated fluid delivery device, e.g., as described above, by three subjects to their own eye. The age range of the subjects was 52 years to 68 years, and all subjects were male. The pilocarpine micro-dose was self-administered by the subjects.
(§2) Baseline, pre-dose values of pupil diameter and near visual acuity in both eyes prior to dosing was measured for all subjects, and then following the baseline measurements, the subjects were dosed in only one eye (the eye with the poorer visual acuity) with the micro-dose pilocarpine solution. Approximately 45 to 60 minutes after dosing, pupil diameter and near visual acuity were again tested. Near visual acuity was measured using a Snellen card at a distance of 40 cm. A tabulation of results is given below in Table A.

Experiment [2] relates to eye of subjects. Kind of experiment: Presbyopia: near visual acuity, Snellen card at 40 cm. The conditions noted are these: 45 to 60 minutes after dosing. Here is the method:
as §1, §2

In experiment [3] the test system is patients diagnosed with primary open angle glaucoma. Kind of experiment: Trial 2: intraocular pressure reduction, Goldmann applanation tonometry. To be noted: for Post-treatment IOP, Mean: 0.005% w/v, N=18 eyes; for Post-treatment IOP, Mean / average decrease in IOP measured per patient / Post-treatment IOP, Median: approx. 8 hours after dosing; for Post-treatment IOP, Median: baseline median 18.0; for Total pressure reduction, Mean / Total pressure reduction, Median: signed change from baseline. As to the method:
Trial 2 compared the efficacy (dose volume equivalence) of 0.005% w/v latanoprost for intraocular pressure reduction when delivered via AcuStream™ (pre-trial calibration volume=9.2 μl) versus the standard eye dropper for topical drug delivery (approximate volume=30 μl).
Patients included in Trial 2 have previously been diagnosed with primary open angle glaucoma on the basis of intraocular pressure and visual field testing, fundus examination or optical coherence tomography (OCT) data and are currently on prostaglandin analog medical therapy. Patients with corneal abnormalities that would interfere with accurate IOP measurements with applanation tonometry, use of an oral or topical ophthalmic steroids within the past 14 days from screening date, any active ocular surface or anterior segment disease, or progressive field loss during the past year were excluded from the study. Thirteen men and five women participated in the trial.
Recruited patients were taken off medical therapy for a period of 3-4 weeks prior to the study to allow drug “wash out”, thereby elevating their IOPs to pre-treatment levels which was confirmed by examination of the patients' chart history. Patients were randomly assigned as “test” (AcuStream™), or “control” (standard eye dropper). The mean age of the control group and test group were 61.0 years and 65.2 years, respectively.
The patients assigned to either the “test” or “control” group by means of a random numbers table in order to mitigate any potential cross-over effects that could confound data interpretation. An odd number dictated that the patient was in the test group, while even-numbered patients were in the control group.
After performing slit lamp examinations on each patient to verify eligibility and obtaining informed consent, intraocular pressure (IOP) was measured by a sole experienced examiner who was blind to the randomized conditions. A pre-calibrated Goldmann applanation tonometer coupled to a Haag-Streit 900 EQ slit lamp was used to conduct baseline IOP measurements. Once baseline IOP data were verified to be equivalent to pre-medical therapy levels (based on patient's treatment history), the patient then continued to the dosing stage of the study.
Latanoprost solution was administered by a sole ophthalmologist to both eyes of each patient, based on the pre-determined randomized condition.

Where [4] appears, read: standard eye dropper control group.

Consider 2 molecules from US20190314196A1, “Topical Ocular Delivery Methods and Devices for Use in the Same” (Kedalion Therapeutics, Inc., priority 2018, published 2019).

Turning to `CC[C@@H]1C(=O)OC[C@@H]1Cc1cncn1C` [pilocarpine], the “Mean change in dosed pupil dia” value in the experiment with eye of subjects [1] (dosed eye, 10 μl micro-dose of 1% solution, 45 to 60 minutes after dosing, 3 subjects) is reported as −0.7 mm. Moreover, the “Mean post-dose pupil dia” value in the experiment with eye of subjects [1] (dosed eye, 10 μl micro-dose of 1% solution, 45 to 60 minutes after dosing, 3 subjects, baseline mean 2.9 mm) is given as 2.2 mm. The “mean reduction in pupil diameter” value in the experiment with eye of subjects [1] (dosed eye, 10 μl micro-dose of 1% solution, all subjects) is reported as 0.70 mm. Further, in the experiment with eye of subjects [1] (non-dosed contralateral eye), the “miotic effect in non-dosed eye” value is reported as “no miotic effect”. In addition, in the experiment with eye of subjects [1] (non-dosed contralateral eye, 45 to 60 minutes after dosing), the “Mean change in non-dosed pupil dia” value is recorded as 0.2 mm. Besides, the “Mean non-dose pupil dia” value in the experiment with eye of subjects [1] (non-dosed contralateral eye, 45 to 60 minutes after dosing, baseline mean 2.8 mm) amounted to 3.0 mm. In the experiment with eye of subjects [2] (baseline median 20/30), the “Median dosed eye near visual acuity” value is listed as 20/20. Further, the “# of lines change in visual acuity (mean improvement)” value in the experiment on eye of subjects [2] (dosed eye, 3 subjects) was determined as 2 lines.
On to `CC(C)OC(=O)CCC/C=C\C[C@@H]1[C@@H](CC[C@@H](O)CCc2ccccc2)[C@H](O)C[C@@H]1O` [latanoprost], for which the “difference in IOP reduction between groups” value in experiment [3] (AcuStream 9.2 μl versus standard eye dropper 30 μl) is given as “no statistically significant differences”. The “Post-treatment IOP, Mean” value in experiment [3] (AcuStream test group, 9.2 μl, baseline 18.6) came out at 13.6 mm Hg. Further, in experiment [3] (AcuStream test group), the “average decrease in IOP measured per patient” value is 5.0 mm Hg; the “Post-treatment IOP, Median” value amounted to 13.0 mm Hg; the “Total pressure reduction, Mean” value is reported as −5.0 mm Hg; the “Total pressure reduction, Median” value is reported as −5.0 mm Hg. In addition, the “post-instillation IOP (OD), single patient outlier” value in experiment [3] (control group, baseline IOP 30 mm Hg) is recorded as 17 mm Hg. Besides, in experiment [3] (latanoprost 0.005% w/v), the “equivalence of 9.2 μl AcuStream dose to 30 μl standard eye drop, intraocular pressure reduction” value is listed as “pharmacodynamic equivalence”. The “Post-treatment IOP, Mean” value in experiment [3] (standard eye dropper control group, approx. 30 μl, baseline 17.7) was 13.3 mm Hg. In experiment [3] (setting [4]), the “average decrease in IOP measured per patient” value worked out at 4.3 mm Hg; the “Post-treatment IOP, Median” value amounted to 12.0 mm Hg; the “Total pressure reduction, Mean” value was −4.3 mm Hg; the “Total pressure reduction, Median” value is listed as −4.0 mm Hg.
